This is an account of results in patent US8475850B2, “Methods and compositions for heavy metal detoxification” (priority 2007, dated 2013).

For one test, the system named is GSTA1 and NQO1. Conditions: for phase II gene expression increased over DMSO control: text summary of Table 7.
Another test relates to HMOX1. Conditions: for HMOX1 gene expression increased over DMSO control: text summary of Table 7.
A further test concerns GST. Kind of test: GST activity assay in RL-34 cell lysate after treatment. In kind it is cell-based, rat. The settings on record: RL-34 cell line.
Another test deals with NQO1. In words: NADPH quinone oxido reductase (NQO1) activity assay in RL-34 cell lysate after treatment. The format is cell-based, rat. Conditions: RL-34 cell line.
The subject of test [1] is metallothionein (hMT1&2 and hMT1&2alt). Conditions: for MT gene expression increased over DMSO control: text summary of Table 7.
The subject of test [2] is heme oxygenase (HO-1) promoter. Kind of test: heme oxygenase (HO-1) luciferase reporter in the HepG2 cell line. The settings on record: thirty percent induction over DMSO control is considered as active.
For a further test, the system named is Nrf-2. In words: Western blot of Nrf-2 in the nuclear fraction of HepG2 cells. Conditions: 4 hours, FIGS. 3 and 4. In kind it is cell-based, human. How it is done:
The HepG2 cell line was cultured as above and test compounds were added for four hours, after which the cells were lysed and the nuclear fraction was isolated (Dignam, J. D., R. M. Lebovitz, and R. G. Roeder, Nucleic Acids Res, 11(5): 1475-89, 1983). Total protein concentration was determined using the Bicinchoninic Acid Kit (Sigma). […] (60 μg total protein) were electrophoresed and detection of Nrf-2 was performed using primary antibody incubation overnight at 4° C. (Santa Cruz Biotechnology, Inc, Santa Cruz, Calif.). Secondary antibody linked to horseradish peroxidase was incubated for one h (GE Healthcare, Piscataway, N.J.), after which proteins were visualized using the enhanced chemiluminescence (ECL) system. Densitometry was performed using Kodak Molecular Imaging Software v.4.0 (Eastman Kodak Company, Rochester, N.Y.) measuring the net intensity of the band.

Read-outs that look alike come from different tables or passages of the source.

Regarding `C=C1CC[C@@H]2[C@](C)(CO)[C@H](O)CC[C@@]2(C)[C@@H]1C/C=C1/C(=O)OC[C@H]1O` [Andrographis, 3-(2-(Decahydro-6-hydroxy-5-(hydroxymethyl)-5,8a-dimethyl-2-methylenenaphthyl)ethylidene)dihydro-4-hydroxyfuran-2(3H)-one], in the test on GSTA1 and NQO1 (HepG2 cells), the “phase II gene expression increased over DMSO control” value is no less than 20%. For the same compound, in the test on HMOX1 (HepG2 cells), the “HMOX1 gene expression increased over DMSO control” value (“HMOX1 gene expression increased” for short) is on record as no less than 20%. The “GST activity induced over DMSO control” value with GST (25 μg/ml) is no less than 20%. For the same compound, the “NQO1 enzymatic activity induced over DMSO control” value in the test on NQO1 (25 μg/ml) was no less than 20%.
Regarding `COc1ccc2cc3[n+](cc2c1OC)CCc1cc2c(cc1-3)OCO2` [Berberine], in the test on NQO1 (20 μg/ml), the “NQO1 enzymatic activity induced over DMSO control” value is no less than 20%.
In the case of `O=c1c(-c2ccc(O)cc2)coc2cc(O)cc(O)c12` [Bonistein], the “NQO1 enzymatic activity induced over DMSO control” value in the test with NQO1 (20 μg/ml) is no less than 20%.
Regarding `[Cl][Cd][Cl]` [CdCl2], in the test on GSTA1 and NQO1 (HepG2 cells, 8 hours, 40 uM, average of GSTA1 and NQO1), the “Phase II (ave) Ratio to DMSO” value worked out at 0.94. In addition, the “phase II gene induction (in words)” value in the test with GSTA1 and NQO1 (HepG2 cells, controls) is on record as “unable to increase”. Besides, the “HMOX1 gene induction (in words)” value in the test with HMOX1 (HepG2 cells, controls) is “induce”. Besides, the “MT gene induction (in words)” value in test [1] (HepG2 cells, controls) is given as “induce”.
Regarding `COc1cc(C=CC(=O)CC(=O)C=Cc2ccc(O)c(OC)c2)ccc1O` [Curcumin, 1,7-Bis(4-hydroxy-3-methoxyphenyl)hepta-1,6-diene-3,5-dione], the “phase II gene expression increased over DMSO control” value with GSTA1 and NQO1 (HepG2 cells) is recorded as no less than 20%. In addition, in test [2], the “expression of heme oxygenase promoter activity (in words)” value (“expression … (in words)” below) is recorded as “induced”. Also, the “HMOX1 gene expression increased” value in the test on HMOX1 (HepG2 cells) was no less than 20%. Also, the “NQO1 enzymatic activity induced over DMSO control” value with NQO1 (5 μg/ml) was no less than 20%.
As for `c1ccc2c(Cc3c[nH]c4ccccc34)c[nH]c2c1` [DIM], the “NQO1 enzymatic activity induced over DMSO control” value with NQO1 (25 μg/ml) is no less than 20%.
Turning to `OCc1c[nH]c2ccccc12` [I3C], the “NQO1 enzymatic activity induced over DMSO control” value with NQO1 (25 μg/ml) is on record as no less than 20%.
As to `CC1(C)CC[C@]2(C(=O)O)CC[C@]3(C)C(=CC[C@@H]4[C@@]5(C)CC[C@H](O)C(C)(C)[C@@H]5CC[C@]43C)[C@@H]2C1` [Oleanolic acid], the “expression … (in words)” value in test [2] was “induced”. Further, the “MT gene expression increased over DMSO control” value in test [1] (HepG2 cells) is no less than 20%. Moreover, the “NQO1 enzymatic activity induced over DMSO control” value in the test on NQO1 (25 μg/ml) was no less than 20%.
Take `C=C1C(=O)O[C@H]2[C@H]1CC/C(C)=C/CC[C@@]1(C)O[C@@H]21` [Parthenolide]: in the test on NQO1 (20 μg/ml), the “NQO1 enzymatic activity induced over DMSO control” value is recorded as no less than 20%.
Consider `O=c1c(O)c(-c2ccc(O)c(O)c2)oc2cc(O)cc(O)c12` [Quercitin], for which the “NQO1 enzymatic activity induced over DMSO control” value with NQO1 (20 μg/ml) is reported as no less than 20%.
On to `Oc1ccc(C=Cc2cc(O)cc(O)c2)cc1` [Resveratrol], for which the “NQO1 enzymatic activity induced over DMSO control” value in the test with NQO1 (20 μg/ml) is no less than 20%.
For `C[S+]([O-])CCCCN=C=S` (stereo not shown) [Sulforaphane], in the test on GSTA1 and NQO1, the “Phase II (ave) Ratio to DMSO” value was 1.64 and the “phase II gene induction (in words)” value is “increased”. In test [2], the “expression … (in words)” value is given as “induced”. The “HMOX1 gene induction (in words)” value in the test on HMOX1 is recorded as “increased”. In addition, the “GST activity induced over DMSO control” value in the test with GST (3 μg/ml) is listed as no less than 20%. Further, the “Nrf-2 nuclear translocation (in words)” value in the test on Nrf-2 is reported as “dramatic increase”. In test [1], the “MT 1.2 (ave) Ratio to DMSO” value came out at 0.87 and the “MT gene induction (in words)” value is “but not MT”. In the test on NQO1 (3 μg/ml), the “NQO1 enzymatic activity induced over DMSO control” value is on record as no less than 20%.
With `O=c1oc2c(O)c3oc(=O)c4c5c(oc(=O)c6cc(O)c(O)c(O)c65)c(O)c5oc(=O)c(c2c2c(O)c(O)c(O)cc12)c3c54` [Terminalin], the “expression … (in words)” value in test [2] is “induced”.
For the compound `COc1cc(O)c(CC=C(C)C)c(O)c1C(=O)/C=C/c1ccc(O)cc1` [Xanthohumol], the “expression … (in words)” value in test [2] is given as “induced”. In addition, in the test with HMOX1 (HepG2 cells), the “HMOX1 gene expression increased” value is listed as no less than 20%. Further, the “GST activity induced over DMSO control” value in the test with GST (1 μg/ml) is on record as no less than 20%. Also, the “MT gene expression increased over DMSO control” value in test [1] (HepG2 cells) is recorded as no less than 20%. Also, the “NQO1 enzymatic activity induced over DMSO control” value with NQO1 (1 μg/ml) was no less than 20%.
As to `[Cl-].[Cl-].[Zn+2]` [ZnCl2], the “Phase II (ave) Ratio to DMSO” value with GSTA1 and NQO1 (HepG2 cells, 8 hours, 10 μg/ml, average of GSTA1 and NQO1) worked out at 0.94. For the same compound, the “expression … (in words)” value in test [2] was “induced”.
For the compound `O=C(/C=C/c1ccc(O)c(O)c1)O[C@@H]1C[C@](O)(C(=O)O)C[C@@H](O)[C@H]1O` [chlorogenic acid], the “NQO1 enzymatic activity induced over DMSO control” value in the test with NQO1 (25 μg/ml) is on record as no less than 20%.
